Results published in patent US9439882B2, “Compounds and compositions for the treatment of cancer” (PROMETIC BIOSCIENCES, INC., priority 2010, dated 2016).

Experiments:
IL-12 production = IL-12 production in LPS-stimulated RAW264.7 cells (ELISA); format: cell-based; conditions: 100 ng/mL LPS, 21 h; for IL-12: compound 0.5 mM
Procedure: The effect of selected compounds on IL-12 production was undertaken in RAW264.7 (macrophage-like) cells. RAW264.7 cells were cultured with 100 ng/mL of LPS in presence or absence of compounds for 21 h in a humidified atmosphere of 95% air-5% carbon dioxide at 37° C. IL-12 concentration in the culture medium was measured using the IL-12 ELISA according to the manufacturer (BD Biosciences) recommendations. […] Compounds have no effect on IL-12 production in the absence of LPS.

CTGF production = assay: Inhibition of TGF-induced CTGF production in NHDF (ELISA); format: cell-based; conditions: Homo sapiens, 10 ng/mL TGF-β, 48 h
Procedure: The effect of selected compounds on CTGF production was undertaken in normal human dermal fibroblast (NHDF) or human mesangial cells. Cells were cultured in DMEM (0.5% FBS) with or without 10 ng/mL of TGF-β for 48 h in a humidified atmosphere of 95% air-5% carbon dioxide at 37° C. CTGF measurement in the culture medium was measured using the CTGF ELISA according to the manufacturer (Prepotech) recommendations.

B16F10 melanoma cells = assay: Primary B16F10 melanoma tumor in mice; format: in vivo; conditions: C57BL/6 mice; sodium decanoate 100 mg/kg oral daily, doxorubicin 5 mg/kg (subtherapeutic dose); FIG. 3
Procedure: Female 6-8 week old C57BL/6 mice were injected subcutaneously on day 0 with 50 μL of 3.75×10^4 viable B16F10 melanoma cells from ATCC (source of cell culture, Dr. I. J. Fidler). On day 14, tumors reached […] and animals were randomized for treatment. […] Mice were sacrificed on day 12.

P815 mastocytoma = assay: Primary P815 mastocytoma tumor growth in mice; format: in vivo
Description: The syngeneic tumor P815 is a DBA/2 (H-2^d)-derived mastocytoma obtained from ATCC (TIB64). […] Mice were sacrificed around day 23 (depending on the experiment). […] Tumors were palpable, in general, 3-5 days post-inoculation.

P815 liver metastasis = P815 liver metastasis in mice; format: in vivo
Procedure: The syngeneic tumor P815 is a DBA/2 (H-2^d)-derived mastocytoma obtained from ATCC (TIB64). P815 cells were grown in DMEM containing 10% fetal bovine serum. At day 0, 50 μL of 5×10^5 viable P815 cells were subcutaneously injected to produce localized tumors in 6- to 8-week old DBA/2 mice. The animals were then serially monitored by manual palpation for evidence of tumor. […] Mice were sacrificed around day 23 (depending on the experiment). Serial tumor volume was obtained by bi-dimensional diameter measurements with calipers, using the formula 0.4 (a×b^2) where “a” was the major tumor diameter and “b” the minor perpendicular diameter. Tumors were palpable, in general, 3-5 days post-inoculation.
It is known that P815 cells have the capacity to metastasize to the liver.

HK-2 cells = assay: TGF-β induced epithelial to mesenchymal transition in HK-2 cells (real-time PCR of E-cadherin, CTGF, collagen 1); format: cell-based, human
Procedure: (§1) FIG. 20 is a bar graph showing the effect of Compound XVII on E-cadherin in normal HK-2 cells and in TGF-β induced EMT cells. Real-time PCR using human E-cadherin TaqMan® Gene Expression Assay normalized to human GAPDH endogenous control; reference is TGF-δ-treated cells 24 h (RQ=1). *means p<0.05, and ** means p<0.01 (t-test).
as §1, with “FIG. 21” for “FIG. 20”, “on CTGF” for “on E-cadherin”, “human CTGH” for “human E-cadherin”, “is TGF-β-treated” for “is TGF-δ-treated”
FIG. 22 is a bar graph showing the effect of Compound XVII on collagen 1 in normal HK-2 cells and in TGF-β induced EMT cells. Real-time PCR using human Collagen 1 TaqMan® Gene Expression Assay normalized to human GAPDH endogenous control; reference is TGF-β-treated cells 24 h (RQ=1). ** means p<0.01 (t-test).
Real-time PCR using human CTGF TaqMan® Gene Expression Assay and Collagen 1 TaqMan® Gene Expression Assay normalized to human GAPDH endogenous control; reference is TGF-β-treated cells 24 h (RQ=1).
FIG. 24 is a bar graph showing the effect of Compound I on CTGF and collagen 1 expression in normal HK-2 cells and in TGF-β induced EMT cells. Real-time PCR using human CTGF TaqMan® Gene Expression Assay and Collagen 1α1 TaqMan® Gene Expression Assay normalized to human GAPDH endogenous control; reference is TGF-β-treated cells 24 h (RQ=1). Compound I is added at 0.5 mM.
Further analysis was undertaken to determine the effect of Compoounds on EMT. The effect of Compound XVII on TGF-β induced EMT was analyzed on human epithelial […] cells (HK-2). To assess the progression of EMT, the pro-epithelial marker E-cadherin and the mesenchymal/pro-fibrotic markers CTGF and collagen 1 were assayed by quantitative real-time PCR. To determine the efficacy of Compound XVII in inhibiting TGF-β-induced EMT, verification of the ability of TGF-β to induce EMT in HK-2 cells.

CT-26WT colon tumor = assay: Primary colon CT-26WT tumor in mice; format: in vivo; conditions: FIG. 12 and 13; for efficacy on primary tumor CT-26 (single agent): sodium decanoate oral 200 mg/kg daily, 5-fluorouracil i.p. 40 mg/kg day 6, 13, 20, Compound XV oral
Procedure: The syngeneic tumor CT-26WT (CT-26) is a colon tumor cell line obtained from ATCC (CRL-2638). CT-26 cells were grown in RPMI containing 10% fetal bovine serum. At day 0, 50 μL of 5×10^6 viable CT-26 cells were subcutaneously injected to produce localized tumors in 6- to 8-week old mice. The animals were then serially monitored by manual palpation for evidence of tumor. […] Mice were sacrificed at day 25. Serial tumor volume was obtained by bi-dimensional diameter measurements with calipers, using the formula 0.4 (a×b^2) where “a” was the major tumor diameter and “b” the minor perpendicular diameter. Tumors were palpable, in general, 3-5 days post-inoculation.

[1] = TGF-β-stimulated cells, 24 h, normalized to GAPDH, sodium decanoate and Compound I at 0.5 mM
[2] = compound alone, no TGF-β, sodium decanoate and Compound I at 0.5 mM

With `CCCCCCCCC(Oc1ccc(C(=O)CCC)cc1)C(=O)[O-].[Na+]` (racemic) [Compound XXV, Sodium (RS)-2-[4-Butyrylphenoxy]decanoate] the “IL-12 (pg/mL)” value (IL-12 production; compound 0.04 mM) was 73 (at 0.04 mM) pg/mL and the melting point was 262 to 278 °C.
With `CCCCCCCC(=O)c1cccc(C(=O)[O-])c1.[Na+]` [Compound XVIII, Sodium 3-octanoylbenzoate] the “IL-12” value (IL-12 production) was 1099 pg/mL and the inhibition at 200 µM (CTGF production) was 49%.
In the case of `CCCCCCc1cccc(C(=O)[O-])c1.[Na+]` [Compound XIII, Sodium salt of 3-hexylbenzoate], the “IL-12 (pg/mL)” value (IL-12 production; compound 0.125 mM) was 18 (at 0.125 mM) pg/mL and the inhibition at 125 µM (CTGF production; 125 μM) was 29%.
With `CCCCCCCC(=O)c1ccc(OC(CCCCCC)C(=O)[O-])cc1.[Na+]` (racemic) [Compound XXIV, Sodium (RS)-2-[4-Octanoylphenoxy]octanoate] the “IL-12 (pg/mL)” value (IL-12 production; compound 0.02 mM) was 12 (at 0.02 mM) pg/mL and the melting point was 165 to 170 °C.
For `COc1cccc2c1C(=O)c1c(O)c3c(c(O)c1C2=O)C[C@@](O)(C(=O)CO)C[C@@H]3O[C@H]1C[C@H](N)[C@H](O)[C@H](C)O1` [doxorubicin, reference compound], the “reduction of primary tumor volume compared to the control” value (B16F10 melanoma cells) was “around 25%”.
With `CCCCCCCCC(Oc1ccc(C(=O)CCCCCCC)cc1)C(=O)[O-].[Na+]` (racemic) [Compound XVII, Sodium (RS)-2-[4-octanoylphenoxy]decanoate] the “IL-12 (pg/mL)” value (IL-12 production; compound 0.05 mM) was 209 (at 0.05 mM) pg/mL, the inhibition at 7.5 µM (CTGF production; 7.5 μM) was 40% and the P815 tumor growth (P815 mastocytoma; FIG. 17) was “significant reduction (p<0.05)”. The “efficacy compared with soluble acetylsalicylic acid” value (P815 mastocytoma; FIG. 17) was “better efficacy to the gold standard compound”, the “reduction of the number of mice with liver metastasis” value (P815 liver metastasis; 50 mg/kg, FIG. 18) was “approximately 20%” and the “TGF-β induced EMT” value (HK-2 cells; HK-2 cells, sodium decanoate and Compound I at 0.5 mM) was “significantly inhibited”. The E-cadherin transcript expression (HK-2 cells; TGF-β induced EMT cells, 24 h, normalized to GAPDH, FIG. 20) was “upregulation”, the CTGF transcript expression (HK-2 cells; [1]) was “downregulation” and the “collagen 1 transcript expression” value (HK-2 cells; [1]) was “downregulation”. The “basal expression of CTGF” value (HK-2 cells; [2]) was “downregulate” and the “basal expression of collagen 1” value (HK-2 cells; [2]) was “downregulate”.
Compound `CCCCOc1ccc(C(CC(=O)[O-])c2cccc(F)c2)cc1.[Na+]` (centres unmarked) has a melting point of 135 °C.
With `CCCCCc1cc(CC(=O)[O-])ccc1O.[Na+]` [Compound IX, Sodium 2-[4-Hydroxy-3-pentylphenyl]acetate] the “IL-12” value (IL-12 production) was 20 pg/mL and the melting point was 193 to 197 °C.
For `CCCCCCCC(=O)c1cccc2c1CC(C(=O)[O-])C2.[Na+]` (racemic) [Compound XLI, Sodium (RS)-4-Octanoylindane-2-Carboxylate], the “IL-12 (pg/mL)” value (IL-12 production; compound 0.1 mM) was 25 (at 0.1 mM) pg/mL.
For `CCCCCc1ccc(C(=O)[O-])cc1.[Na+]` [Compound XI, Sodium salt of 4-pentylbenzoic acid], the “IL-12” value (IL-12 production) was 78 pg/mL and the inhibition at 500 µM (CTGF production) was 28%.
In the case of `CCCCCc1cc(O)cc(CC(=O)[O-])c1.[Na+]` [Compound VIII, Sodium salt of [3-Hydroxy-5-pentylphenyl]acetic acid], the “IL-12” value (IL-12 production) was 17 pg/mL and the inhibition at 200 µM (CTGF production) was 47%.
In the case of `O=c1[nH]cc(F)c(=O)[nH]1` [5-fluorouracil, reference compound], the “efficacy on primary tumor CT-26 (single agent)” value (CT-26WT colon tumor) was “weak efficacy”.
In the case of `CCC/C=C/c1cccc(CC(=O)[O-])c1.[Na+]` [Compound IV, Sodium salt of E-(3-pent-1-enyl-phenyl)acetic acid], the “IL-12” value (IL-12 production) was 19 pg/mL and the inhibition at 500 µM (CTGF production) was 34%.
For `CCCC/C=C/c1cccc(CC(=O)[O-])c1.[Na+]` [Compound VI], the “IL-12” value (IL-12 production) was 53 pg/mL.
For `CCCCc1cccc(CCC(=O)[O-])c1.[Na+]` [Compound III], the “IL-12” value (IL-12 production) was 62 pg/mL and the inhibition at 500 µM (CTGF production) was 46%.
For `O=C([O-])CCc1ccc(NCc2cccc(Oc3ccccc3)c2)cc1.[Na+]` [Compound XV, 3-(4-(3-phenoxy-benzylamino)phenyl) propionic acid], the “IL-12” value (IL-12 production) was 37 pg/mL, the inhibition at 20 µM (CTGF production; 20 μM) was 22% and the P815 tumor growth (P815 mastocytoma; oral 200 mg/kg, FIG. 7 and 8) was “significant reduction (p<0.05)”. The “reduction of mice with liver metastasis” value (P815 liver metastasis; oral 200 mg/kg, p<0.05, FIG. 9 and 10) was 50% and the “efficacy on primary tumor CT-26 (single agent)” value (CT-26WT colon tumor) was “weak efficacy”.
In the case of `CCCCCc1cccc(CCC(=O)[O-])c1.[Na+]` [Compound II, Sodium salt of 3-(3-pentylphenyl)propionic acid], the “IL-12” value (IL-12 production) was 351 pg/mL, the inhibition at 100 µM (CTGF production; 100 μM) was 38% and the P815 tumor growth (P815 mastocytoma; oral 200 mg/kg, FIG. 7 and 8) was “significant reduction (p<0.05)”.
In the case of sodium decanoate and 5-fluorouracil, the “tumor growth T/C” value (CT-26WT colon tumor; combination, from day 16 to day 26) was “approximately 40%”.
In the case of `CCCCCCCCC(Oc1ccc(C(=O)CCCCC)cc1)C(=O)[O-].[Na+]` (racemic) [Compound XXVI, Sodium (RS)-2-[4-Hexanoylphenoxy]decanoate], the “IL-12 (pg/mL)” value (IL-12 production; compound 0.02 mM) was 54 (at 0.02 mM) pg/mL and the melting point was 275 to 280 °C.
With `CCCCCCCC(=O)c1ccc2c(c1)CC(C(=O)[O-])C2.[Na+]` (racemic) [Compound XIX, Sodium (RS)-5-octanoylindane-2-carboxylate] the “IL-12 (pg/mL)” value (IL-12 production; compound 0.05 mM) was 53 (at 0.05 mM) pg/mL and the inhibition at 63 µM (CTGF production; 63 μM) was 45%.
